Laboratory results taken from patent US8192962B2, “Processes for detecting toxic substances” (Daikin Industries, Ltd., priority 2001, dated 2012).

Test system: Unknown protein yeast genes
Assay: DNA chip mRNA expression in yeast, unknown protein yeast genes (Table 1)
Assay type: cell-based, Saccharomyces cerevisiae S288C
Experimental: Yeast (Saccharomyces cerevisiae S288C (α SUC2mal mel gap2 CUP1)) were incubated at 25° C. on YPD medium (yeast extract 1%, polypepton 2%, glucose 2%). One of toxic chemical substances was added to the cells at logarithmic growth phase, and the cells were further incubated for two hours. Cells were cultured without any chemical substance in the same condition, and were used as control. Concentrations of the chemical substances were defined to inhibit the growth of the yeast but not lead to death.
After completion of the incubation, the culture was centrifuged to collect the cells. To the cells, sodium acetate buffer (50 mM sodium acetate, 10 mM EDTA, 1% SDS) was added, and the mixture was shaken at 65° C. for five minutes, followed by returning to room temperature, and obtaining the supernatant, of which the procedures were repeated two times. To the supernatant, ½ amount of a solution of phenol/chloroform was added, and the mixture was centrifuged to give a supernatant, which was added with an equal amount of chloroform, and the mixture was centrifuged to give a supernatant. To the supernatant, an equal amount of isopropanol containing 0.3 M sodium acetate was added, and the mixture was allowed to stand at room temperature for 30 minutes, after which the mixture was centrifuged to give a sediment of the whole RNAs. Seventy % ethanol was added to the sediment, and the mixture was again centrifuged to give a sediment, which was then dried and dissolved in water. mRNA was isolated from the whole RNAs as followings. In view of the fact that a poly A chain is attached to the 3′ terminus of mRNA, a polynucleotide having a poly T structure which was immobilized on the surface of latex beads was used to trap the mRNA, and then the mRNA was washed and eluted with spine column (Oligotex-dT30<Super>mRNA Purification Kit, Takara). Reverse transcription of the mRNA was conducted with a reverse transcriptase (Super Script II Reverse Transcriptase; catalogue No. 18064-014, GibcoBRL) using fluorescence-labeled nucleotides to give cDNAs that were introduced with Cy3-dUTP or Cy5-dUTP during the reverse transcription.
The labeled cDNAs were dissolved in TE buffer (10mM Tris-HCl/1 mM EDTA, pH8.0), and the solution was dropped on the DNA chip containing the whole genes of yeast (DNA Chip Research Inc. Japan) so that the cDNAs were hybridized on the DNA chip at 65° C. for over 12 hours. The fluoresces intensity of the DNA chip was read with a scanner, and the ratio relative to the fluorescence intensity resulting from the absence of chemical substance was estimated as the following, which is shown in Tables 1 to 9: […]

## [Cl][Pb][Cl] [(4), PbCl2]
Yeast gene YAL053W, incubated two hours with chemical substance
  The level of expressed mRNA in the presence of chemical substance/The level of expressed mRNA in the absence of chemical substance: 2.1
Yeast gene YBL048W
  The level of expressed mRNA in the presence of chemical substance/The level of expressed mRNA in the absence of chemical substance: 2.8
Yeast gene YBL107C
  The level of expressed mRNA in the presence of chemical substance/The level of expressed mRNA in the absence of chemical substance: 1.5
Yeast gene YDL072C, incubated two hours with chemical substance
  The level of expressed mRNA in the presence of chemical substance/The level of expressed mRNA in the absence of chemical substance: 2.1
Yeast gene YDL204W, incubated two hours with chemical substance
  The level of expressed mRNA in the presence of chemical substance/The level of expressed mRNA in the absence of chemical substance: 3.4
Yeast gene YDL222C, incubated two hours with chemical substance
  The level of expressed mRNA in the presence of chemical substance/The level of expressed mRNA in the absence of chemical substance: 3.9
Yeast gene YDR330W, incubated two hours with chemical substance
  The level of expressed mRNA in the presence of chemical substance/The level of expressed mRNA in the absence of chemical substance: 0.8
Yeast gene YDR411C, incubated two hours with chemical substance
  The level of expressed mRNA in the presence of chemical substance/The level of expressed mRNA in the absence of chemical substance: 1.2
Yeast gene YDR511W, incubated two hours with chemical substance
  The level of expressed mRNA in the presence of chemical substance/The level of expressed mRNA in the absence of chemical substance: 2.3
Yeast gene YDR545W, incubated two hours with chemical substance
  The level of expressed mRNA in the presence of chemical substance/The level of expressed mRNA in the absence of chemical substance: 0.7
Yeast gene YEL001C, incubated two hours with chemical substance
  The level of expressed mRNA in the presence of chemical substance/The level of expressed mRNA in the absence of chemical substance: 0.7
Yeast gene YER004W, incubated two hours with chemical substance
  The level of expressed mRNA in the presence of chemical substance/The level of expressed mRNA in the absence of chemical substance: 1.4
Yeast gene YER035W, incubated two hours with chemical substance
  The level of expressed mRNA in the presence of chemical substance/The level of expressed mRNA in the absence of chemical substance: 1.9
Yeast gene YER079W, incubated two hours with chemical substance
  The level of expressed mRNA in the presence of chemical substance/The level of expressed mRNA in the absence of chemical substance: 2.0
Yeast gene YER106W, incubated two hours with chemical substance
  The level of expressed mRNA in the presence of chemical substance/The level of expressed mRNA in the absence of chemical substance: 1.2
Yeast gene YER158C, incubated two hours with chemical substance
  The level of expressed mRNA in the presence of chemical substance/The level of expressed mRNA in the absence of chemical substance: 3.1
Yeast gene YER163C, incubated two hours with chemical substance
  The level of expressed mRNA in the presence of chemical substance/The level of expressed mRNA in the absence of chemical substance: 1.6
Yeast gene YER175C, incubated two hours with chemical substance
  The level of expressed mRNA in the presence of chemical substance/The level of expressed mRNA in the absence of chemical substance: 2.2
Yeast gene YFL006W, incubated two hours with chemical substance
  The level of expressed mRNA in the presence of chemical substance/The level of expressed mRNA in the absence of chemical substance: 1.0
Yeast gene YFL010C, incubated two hours with chemical substance
  The level of expressed mRNA in the presence of chemical substance/The level of expressed mRNA in the absence of chemical substance: 1.0
Yeast gene YFL024C
  The level of expressed mRNA in the presence of chemical substance/The level of expressed mRNA in the absence of chemical substance: 0.7
Yeast gene YFL032W, incubated two hours with chemical substance
  The level of expressed mRNA in the presence of chemical substance/The level of expressed mRNA in the absence of chemical substance: 0.8
Yeast gene YGL037C, incubated two hours with chemical substance
  The level of expressed mRNA in the presence of chemical substance/The level of expressed mRNA in the absence of chemical substance: 2.1
Yeast gene YGL047W, incubated two hours with chemical substance
  The level of expressed mRNA in the presence of chemical substance/The level of expressed mRNA in the absence of chemical substance: 2.3
Yeast gene YGL053W, incubated two hours with chemical substance
  The level of expressed mRNA in the presence of chemical substance/The level of expressed mRNA in the absence of chemical substance: 2.5
Yeast gene YGL121C
  The level of expressed mRNA in the presence of chemical substance/The level of expressed mRNA in the absence of chemical substance: 4.2
Yeast gene YGL199C, incubated two hours with chemical substance
  The level of expressed mRNA in the presence of chemical substance/The level of expressed mRNA in the absence of chemical substance: 1.0
Yeast gene YGR101W, incubated two hours with chemical substance
  The level of expressed mRNA in the presence of chemical substance/The level of expressed mRNA in the absence of chemical substance: 1.1
Yeast gene YGR110W
  The level of expressed mRNA in the presence of chemical substance/The level of expressed mRNA in the absence of chemical substance: 5.9
Yeast gene YGR130C, incubated two hours with chemical substance
  The level of expressed mRNA in the presence of chemical substance/The level of expressed mRNA in the absence of chemical substance: 1.6
Yeast gene YGR154C, incubated two hours with chemical substance
  The level of expressed mRNA in the presence of chemical substance/The level of expressed mRNA in the absence of chemical substance: 0.5
Yeast gene YGR221C, incubated two hours with chemical substance
  The level of expressed mRNA in the presence of chemical substance/The level of expressed mRNA in the absence of chemical substance: 1.4
Yeast gene YHR138C, incubated two hours with chemical substance
  The level of expressed mRNA in the presence of chemical substance/The level of expressed mRNA in the absence of chemical substance: 2.8
Yeast gene YHR199C, incubated two hours with chemical substance
  The level of expressed mRNA in the presence of chemical substance/The level of expressed mRNA in the absence of chemical substance: 2.0
Yeast gene YIL023C, incubated two hours with chemical substance
  The level of expressed mRNA in the presence of chemical substance/The level of expressed mRNA in the absence of chemical substance: 1.8
Yeast gene YIL041W, incubated two hours with chemical substance
  The level of expressed mRNA in the presence of chemical substance/The level of expressed mRNA in the absence of chemical substance: 1.3
Yeast gene YIL087C, incubated two hours with chemical substance
  The level of expressed mRNA in the presence of chemical substance/The level of expressed mRNA in the absence of chemical substance: 1.6
Yeast gene YJL057C, incubated two hours with chemical substance
  The level of expressed mRNA in the presence of chemical substance/The level of expressed mRNA in the absence of chemical substance: 1.7
Yeast gene YJL066C, incubated two hours with chemical substance
  The level of expressed mRNA in the presence of chemical substance/The level of expressed mRNA in the absence of chemical substance: 2.5
Yeast gene YJL082W, incubated two hours with chemical substance
  The level of expressed mRNA in the presence of chemical substance/The level of expressed mRNA in the absence of chemical substance: 1.1
Yeast gene YJL151C, incubated two hours with chemical substance
  The level of expressed mRNA in the presence of chemical substance/The level of expressed mRNA in the absence of chemical substance: 1.2
Yeast gene YJL152W, incubated two hours with chemical substance
  The level of expressed mRNA in the presence of chemical substance/The level of expressed mRNA in the absence of chemical substance: 1.3
Yeast gene YJL161W, incubated two hours with chemical substance
  The level of expressed mRNA in the presence of chemical substance/The level of expressed mRNA in the absence of chemical substance: 4.6
Yeast gene YJL171C, incubated two hours with chemical substance
  The level of expressed mRNA in the presence of chemical substance/The level of expressed mRNA in the absence of chemical substance: 1.4
Yeast gene YJR008W, incubated two hours with chemical substance
  The level of expressed mRNA in the presence of chemical substance/The level of expressed mRNA in the absence of chemical substance: 1.7
Yeast gene YJR054W, incubated two hours with chemical substance
  The level of expressed mRNA in the presence of chemical substance/The level of expressed mRNA in the absence of chemical substance: 0.9
Yeast gene YKL071W
  The level of expressed mRNA in the presence of chemical substance/The level of expressed mRNA in the absence of chemical substance: 2.8
Yeast gene YKL086W, incubated two hours with chemical substance
  The level of expressed mRNA in the presence of chemical substance/The level of expressed mRNA in the absence of chemical substance: 2.6
Yeast gene YKL151C, incubated two hours with chemical substance
  The level of expressed mRNA in the presence of chemical substance/The level of expressed mRNA in the absence of chemical substance: 2.5
Yeast gene YKL153W, incubated two hours with chemical substance
  The level of expressed mRNA in the presence of chemical substance/The level of expressed mRNA in the absence of chemical substance: 0.7
